Source: patent US12186323B2, “Combination drugs of hypoxanthine and human immunoglobulin” (Institute of Blood Transfusion, Chinese Academy of Medical …, priority 2021, dated 2025)

System: male mice
Assay: Analysis of intestinal injury by 12 Gy of local abdominal irradiation
Assay type: in vivo
Details: 12 Gy local abdominal irradiation
Method: 44 male mice were divided into 4 groups: • 1) TAI group, 10 mice; • 2) hypoxanthine group, 10 mice; • 3) IVIg group, 12 mice; • 4) IVIg+hypoxanthine group, 12 mice;
TAI group received only local abdominal irradiation.
Hypoxanthine was orally administered to the mice in hypoxanthine group 30 min before irradiation, followed by gavage through mouth every two days. The dose of hypoxanthine for each gavage was 50 mg/kg body weight.

[1] = hypoxanthine vs TAI group (FIG. 6), IVIg+hypoxanthine vs IVIg group (FIG. 8)

O=c1[nH]cnc2nc[nH]c12 [hypoxanthine]
no difference: length of the large intestine (hypoxanthine vs TAI group (FIG. 5), IVIg+hypoxanthine vs IVIg group (FIG. 7)) | level of inflammatory factor IL-6 in the small intestine [1] | level of inflammatory factor TNFα in the small intestine [1]
